Assay results published in publication PMC7363885, “Fluorescent artificial receptor-based membrane assay (FARMA) for spatiotemporally resolved monitoring of biomembrane permeability” (Communications Biology, 2020).
“Also recorded” adds a separate entry of the source. Where two headings read alike, the source gives them in different places.

Assays:
[1] = FARMA: permeation of analytes into FAR-loaded liposomes (fluorescence, cuvette or stopped-flow); settings: for membrane permeability (in words): FARMA with FAR-loaded liposomes or GUVs
Description: Elementary physical parameters, such as permeability coefficients, can be extracted from the full kinetic FARMA data. This kinetic profile → parameter mapping requires some assumptions to be made in regard to the permeation mechanism. We applied a reported permeation model for liposomes[31] to arrive at permeation rate constants (kp) and apparent permeability coefficients (Papp). The derivation of the mathematical relation (1), linking the fundamental permeability rate constant and permeability coefficient to experimental measurable kobs rate constants, the known total analyte and total FAR concentration, and the experimentally determined liposome radius (r), is shown in the Supplementary Information.1 Papp=kp⋅r/3=kobs/canalyte⋅cFAR⋅r/3 […]
The volume-to-surface correction factor r/3 accounts for the fact that the observed rates depend on the size, i.e., radius r, of the liposomal assembly. […] The initial-rate method can also be applied, see the Supplementary Information. Moreover, kobs/canalyte can be estimated by single-point measurements at selected canalyte concentration.
A solution of 2.5 mg/mL of POPC and 0.33 mg/mL of POPS in chloroform was purged with nitrogen and dried overnight under […] vacuum. […] The resulting FAR-loaded liposomes were separated from non-encapsulated species by size-exclusion chromatography (NAP-25 column), while maintaining the same buffer. The absence of non-encapsulated FAR was confirmed by adding a non-membrane-permeable species such as tryptophan to a fluorescence cuvette containing 25 µL of liposomes diluted in 1 mL HEPES (10 mM) buffer. Complete removal of non-encapsulated FAR is indicated by the absence of a significant fluorescence change upon Trp addition.
In a typical experiment, 20 µL of liposome solution loaded with FAR was diluted in 1 mL HEPES buffer (10 mM, pH 7.0) in a 1 mL quartz cuvette. An emission spectrum was recorded after 10 min of “equilibration time” on a Varian Eclipse spectrofluorometer thermostated at 22 °C with a water bath using λexc = 400 nm for FAR-1, λexc = 310 nm for FAR-2, and λexc = 330 nm for FAR-3. In the time-resolved experiments, the emission intensity at λobs = 450 nm for FAR-1, λobs = 370 nm for FAR-2, and λobs = 370 and 500 nm for FAR-3 (the latter is the emerging excimer band for certain FAR-3•analyte complexes) was recorded with an averaging time of 0.5 s. […] For single-point experiments, a full spectrum was recorded after a fixed time or several time intervals after analyte addition. […] Only FAR-analyte combinations were used for FARMA, for which no significant autofluorescence and competitive light absorption of the analyte occurred.
For each experiment, measurements from 6 injections were accumulated and the average of these traces was used for data analysis.
Calculation of the unimolecular permeation rate constants ( kp) and of the apparent permeability coefficients (Papp).
The passive diffusion (permeation) of small non-charged compounds follows a modified Fick’s law and can be expressed by a first order kinetics.1 Similar to first order chemical reactions, the kinetics curve can therefore be fitted monoexponentially to obtained the observed permeation rates (kobs). In our assay set-up, such an exponential fit is an approximation, since it neglects that a certain fraction of transported analyte is bound to the FAR and cannot exit the liposome. Nevertheless, the fit of the kinetic curves of the […]
approximation is justified.

[2] = system: FAR-1; assay: Fluorescence titration, FAR•analyte complex formation in homogeneous solution; format: binding; settings: FAR-1; 10 mM HEPES buffer (pH 7); 1:1 binding model; error estimate ≤ 20%
Method: Fluorescence titrations were carried out in aqueous HEPES buffer (10 mM, pH 7, 22 °C) unless stated otherwise. To a solution of the FAR (typically at 10–30 μM) was stepwise added a solution of the analyte (typically up to 2 mM) and the fluorescence spectra were recorded. The normalized emissions at 450 nm (FAR-1) or at 370 nm (FAR-2) were fitted with an equation for a 1 : 1 binding by a least-square fit. The resulting affinity constants are reported in Supplementary Table 1. Representative titration plots are shown in Supplementary Fig. 1. Note that the high CB8-dye binding affinities correspond to a near quantitative degree of host-dye complexation, i.e., quantitative formation of the FAR, such that the subsequent binding of the analyte can be treated independently.

[3] = FARMA in DOPC:DOPS compared to POPC:POPS liposomes; format: in vitro ADME; settings: peer review file
Description: good choice since they give different degrees of packing of lipids. If the authors further utilize the liposomes for testing membrane permeability of some of the compounds appeared in the manuscript using FARMAs composed of such different types of lipids, the results would be informative for understanding relationships between permeability of compounds and lipid structures.
The FARMA method opens indeed a door for the systematic investigation of permeability in dependence on (i) different lipids, (ii) temperature, (iii) phase transitions, and (iv) additives. These studies are under way in our laboratories but we have now emphasized some key findings in regard to the transferability of the method:
- Investigation of additives: We show in the manuscript that different lipid composition are in princi-ple possible by adding cholesterol to the POPC and POPS membrane (Fig S7), causing a noticeable alteration of the permeation kinetics of tryptamine as a model analyte.
- Different lipid compositions: We have added a statement on page 10 (bottom) pointing to the possi-bility of preparing reporter-pair loaded liposomes with different lipid POPC:POPS compositions, ranging from 8:1 to 15:1 (our GUV preparations in the manuscript) to pure POPC (ref. 20 in the main […]

[4] = Aliquot analysis/flat lipid bilayer (macroscopic bilayer of brain phospholipids); cited from earlier work
[5] = Dye displacement membrane assay (liposome-encapsulated host•dye ensembles); settings: dye displacement, CB7•BE-, CB8•MV•5OH-Trp- or CB8•MV•2,6-ANS-loaded liposomes
Description: Supplementary Figure 13 | Graphical representation of membrane assays using dye displacement for signaling. Diffusion of analytes through a lipid membrane is detected by displacement of the dye from (a) a host•dye or (b) a host•dye•quencher complex, leading to reduction or enhancement in emission intensity.
Supplementary Figure 14 | Membrane permeation monitoring of analytes by dye displacement. (a) Time-resolved changes in fluorescence intensity of CB7•BE-loaded liposomes (λexc = 347 nm, λobs = 500 nm) upon addition of the membrane-permeable analyte tyramine and membrane destabilizing peptide melittin.
(b) Evolution of fluorescence intensity after addition of dimethylbenzylamine (DMBA) to CB7•PAL-loaded liposomes (λexc = 347 nm, λobs = 500 nm). (c) Fluorescence response after addition of the […]
tryptophan to liposomes loaded with CB8•MV•2,6-ANS (λexc = 380 nm, λobs = 463 nm). […]
Combing equations S1 and S2, one arrives at Papp = kp∙(r/3) = kobs/canalyte∙cFAR∙(r/3) (equation 1 in main text)
Dye displacement membrane assay
Dye displacement membrane assays rely on selective encapsulation of reporter pairs inside liposomes and the reversible interaction between the receptor and the translocated analyte. To conduct the assay, liposomes containing the chemosensing ensemble composed of a macrocyclic host and a dye are prepared and purified, such that a subsequently added analyte affects the dye fluorescence only if it can enter the vesicle and displaces the dye from the macrocycle. Until now, only the dye displacement has been used as the signaling mechanism for tandem membrane assays,3, 4 whereby the competitive displacement of the dye from such host•dye complexes upon analyte addition restores the fluorescence features of the dye in solution, Supplementary Figures 13 - 14.
Specifically, this signaling mechanism has been mostly employed with macrocyclic host s with cavity space that is capable o f forming 1:1 complex es, e.g., cucurbit[7]uril (CB7) and the dyes berberine (BER) or palmatine (PAL), see Supplementary Figure 13a, or with p-sulfonato calix[4]arene (CX4) and lucigenin.3,4 Expanding the repertoire of chemosensors for tandem membrane assay s, we exploit herein also the ability of a larger macrocyclic host such as cucurbit[8]uril (CB8) to form 1:1:1 ternary complexes,5-7 and utilize here the quencher methyl viologen (MV) in combination with the fluorescent dyes 5-hydroxy tryptophan (5HO-Trp), 2-anilinonaphthalene -6-sulfonic acid (2,6-ANS) or dapoxyl sulfonic acid, sodium salt (DapoxS), Supplementary Figure 13b. Upon addition of an analyte, the fluorescent dye, the quencher or both the fluorescent dye and quencher are displaced from the CB8 cavity, which in each case is reflected by an increase in the emission intensity of the dye (switch -on displacement assay), Supplementary Figures 14- […]
The dye displacement signal strategy has two important disadvantages compared to the preferred fluorescent artificial receptor (FAR) assays:
(i) The dye displacement strategy is limited to strongly binding analytes, i.e., K(analyte) ≥ K(dye), otherwise a large excess concentration of analyte is needed to generate significant

[6] = system: Caco-2; settings: no passive permeation but active transport; cited from earlier work
[7] = End-point analysis/EPC liposomes; cited from earlier work
[8] = Fluorescence quenching; cited from earlier work
[9] = PAMPA; cited from earlier work

SMILES	membrane permeability (in words) [1]	Papp at 16 µM ([1]; not told, pH 7) [×10⁻⁶ cm/s]	Ka [2]	permeation rate, factor lower for DOPC:DOPS compared to POPC:POPS liposomes [3]	Papp Literature [4]	membrane permeability (in words) ([1]; listed as tryptophan)	membrane permeability (in words) [5]	Papp Literature [6]	Papp Literature [7] [×10⁻⁶ cm/s]	Papp Literature [8]	Papp Literature [9]
NCCc1c[nH]c2ccc(O)cc12 [Serotonin, serotonin]	pass the membrane within several minutes to hours	0.004	5 10^3 M−1	2-4	1.1 10^−6 cm s^−1	–	–	–	–	–	–
N[C@@H](Cc1c[nH]c2ccccc12)C(=O)O [Trp, tryptophan]	no permeation	–	150 10^3 M−1	–	–	non-permeating	impermeable	1.0 10^−6 cm s^−1	0.00041	–	–
NCCc1c[nH]c2ccccc12 [Tryptamine, tryptamine]	slow permeation; also recorded: pass the membrane within several minutes to hours	–	50 10^3 M−1	–	6.7 10^−6 cm s^−1	–	slowly membrane permeable	–	–	0.33 10^−6 cm s^−1	5.4 10^−6 cm s^−1
